Experimental data taken from ChEMBL document CHEMBL3243921, “2-Pyrrolidinylideneureas, a new class of central nervous system agents” (J Med Chem, 1978).
Active and inactive are the calls of the source.

Legend:
Mus musculus [1] = assay: Muscle relaxant activity in po dosed mouse assessed as blockade of pentylenetetrazol-induced tonic extensor seizure; format: functional
[2] = Acute toxicity in po dosed mouse assessed as mortality administered as qd for 6 days measured on day 7 post last dose; format: organism-based; details: in vivo
Rattus norvegicus = assay: Antianxiety activity in ip dosed rat assessed as effect on increase in punished responses administered qd for 5 days measured every day for 5 days; format: functional; details: for minimal effective dose: 120 h, read-out: MED
[3] = Ratio of LD50 for po dosed mouse to PD50 for acute toxicity in po dosed mouse assessed as concentration required to produce 50% loss of righting reflex; format: organism-based; details: in vivo
Mus musculus [4] = assay: Acute toxicity in po dosed mouse assessed as concentration required to produce 50% loss of righting reflex administered as qd for 4 days measured for 1 min post last dose; format: organism-based; details: in vivo
Mus musculus [5] = assay: Anticonvulsant activity in po dosed mouse assessed as blockade of supramaximal electroshock-induced […] seizure; format: functional
Mus musculus [6] = assay: Muscle relaxant activity in po dosed mouse assessed as increase in strychnine-induced persistant convulsive threshold; format: functional
Mus musculus [7] = assay: Sedative activity in mouse assessed as increase in pentylenetetrazol-induced pseudo-convulsive threshold at 25 to 200 mg/kg, po; format: functional, organism-based
[8] = Therapeutic index, ratio of PD50 for acute toxicity in po dosed mouse assessed as concentration required to produce 50% loss of righting reflex to MED causing antianxiety activity in ip dosed rat assessed as effect on increase in punished responses; format: organism-based; details: in vivo, other: oral (PD50, mouse) and intraperitoneal (MED, rat), read-out: TI
Mus musculus [9] = assay: Sedative activity in mouse assessed as increase in pentylenetetrazol-induced pseudo-convulsive threshold up to 200 mg/kg, po; format: functional, organism-based; design: dose 200 mg/kg
Mus musculus [10] = assay: Hypnotic activity in mouse assessed as increase in pentylenetetrazol-induced persistent-convulsive threshold up to 200 mg/kg, po; format: functional, organism-based; design: dose 200 mg/kg
Mus musculus [11] = assay: Blockade of pentylenetetrazol-induced lethality in mouse assessed as delay in occurrence of death time up to 200 mg/kg, po; format: functional
[12] = Therapeutic index, ratio of PD50 for acute toxicity in po dosed mouse assessed as concentration required to produce 50% loss of righting reflex to MED25 for muscle relaxant activity in po dosed mouse assessed as increase in strychnine-induced persistant convulsive threshold; format: organism-based; details: in vivo, read-out: TI
Mus musculus [13] = assay: Potency index, ratio of methocarbamol MED20 to compound MED20 for muscle relaxant activity in po dosed mouse assessed as blockade of pentylenetetrazol-induced tonic extensor seizure; format: functional
Mus musculus [14] = assay: Potency index, ratio of chlorzoxazone MED20 to compound MED20 for muscle relaxant activity in po dosed mouse assessed as blockade of pentylenetetrazol-induced tonic extensor seizure; format: functional
Mus musculus [15] = assay: Sedative-hypnotic activity in po dosed mouse assessed as increase in pentylenetetrazol-induced persistent-convulsive threshold; format: functional, organism-based
Mus musculus [16] = assay: Hypnotic activity in po dosed mouse assessed as increase in pentylenetetrazol-induced persistent-convulsive threshold; format: functional, organism-based

Structure (SMILES)	MED20 (Mus musculus [1]) [mg/kg]	LD50 at 144 h [2] [mg/kg]	minimal effective dose (Rattus norvegicus) [mg/kg]	selectivity ratio [3]	PD50 (Mus musculus [4]) [mg/kg]	MED20 (Mus musculus [5]) [mg/kg]	MED25 (Mus musculus [6]) [mg/kg]	Activity (Mus musculus [15])	Activity (Mus musculus [1])	Activity (Mus musculus [16])	Activity (Rattus norvegicus)	Activity (Mus musculus [5])	Activity (Mus musculus [6])	further results
COc1cccc(NC(=O)/N=C2\CCCN2C)c1	68	1200	> 25	1.5	1390	135	135							Activity (Mus musculus [7]): Active
CCC1(c2ccccc2)C(=O)NC(=O)NC1=O [PHENOBARBITAL]				3										
CN1CCC/C1=N\C(=O)Nc1cccc(Br)c1	52	1580	25	1.1	1430	180	58							selectivity ratio [8]: 57; Activity (Mus musculus [7]): Active
Cc1cccc(C)c1NC(=O)/N=C1\CCCN1C [XILOBAM]	22		> 25		230	27	26							Activity (Mus musculus [9]): inactive; Activity (Mus musculus [10]): inactive
CCc1cccc(CC)c1NC(=O)/N=C1\CCCN1C	16	370	> 25	2.3	161	64	120							Activity (Mus musculus [9]): inactive; Time (Mus musculus [11]): 1 min; selectivity ratio [12]: 1.3; Ratio (Mus musculus [13]): 4; Activity (Mus musculus [10]): inactive; Ratio (Mus musculus [14]): 4
CN1CCC/C1=N\C(=O)Nc1ccccc1	40	215	15	1	220	>100	35							selectivity ratio [8]: 15; Activity (Mus musculus [7]): Active
COc1cccc(OC)c1NC(=O)/N=C1\CCCN1C	62	650	> 25	1.4	460	80	>200							Activity (Mus musculus [9]): inactive; Time (Mus musculus [11]): 1 min; Activity (Mus musculus [10]): inactive
Cc1cccc(NC(=O)/N=C2\CCCN2C)c1	25	850	25	1	825	76	>200							selectivity ratio [8]: 33; Activity (Mus musculus [7]): Active
COc1cccc(NC(=O)/N=C2\CCC(C)N2C)c1 (configuration not stated)	68	1900	> 25	1.5	680	135	160							
CC(C)c1cccc(C(C)C)c1NC(=O)/N=C1\CCCN1C	180	260				165	>200							Activity (Mus musculus [9]): inactive; Time (Mus musculus [11]): 1 min; Activity (Mus musculus [10]): inactive
CN1CCC/C1=N\C(=O)Nc1c(Cl)cccc1Cl	25	565	> 25	1.8	320	58	64							Activity (Mus musculus [9]): inactive; Time (Mus musculus [11]): 1 min; selectivity ratio [12]: 5; Ratio (Mus musculus [13]): 4; Activity (Mus musculus [10]): inactive; Ratio (Mus musculus [14]): 4
CN1CCC/C1=N\C(=O)Nc1cccc(I)c1	36	> 1000	> 25		> 820	112	86							
CN1CCC/C1=N\C(=O)Nc1c(Br)cccc1Br	25	560	> 25	1.6	350	74	50							Activity (Mus musculus [9]): inactive; Time (Mus musculus [11]): 1 min; selectivity ratio [12]: 7; Ratio (Mus musculus [13]): 4; Activity (Mus musculus [10]): inactive; Ratio (Mus musculus [14]): 4
CN1CCC/C1=N\C(=O)Nc1cccc(C(F)(F)F)c1	47	> 1000	> 25		1000	76	58							Activity (Mus musculus [7]): Active
O=C(/N=C1\CCCCCN1)Nc1ccccc1								inactive	inactive	inactive	inactive	inactive	inactive	
CC1/C(=N\C(=O)Nc2ccccc2)N(C)CC1c1ccccc1 (configuration not stated)								inactive	inactive	inactive	inactive	inactive	inactive	
CN1CC(c2ccccc2)C/C1=N\C(=O)Nc1c(Cl)cccc1Cl (configuration not stated)								inactive	inactive	inactive	inactive	inactive	inactive	
CN1CCC/C1=N\C(=O)Nc1cccc(F)c1	38	525	25	1	500	200	210							selectivity ratio [8]: 20
CN1CCCCC/C1=N\C(=O)Nc1cccc(Cl)c1								inactive	inactive	inactive	inactive	inactive	inactive	
CN1CCCCC/C1=N\C(=O)Nc1ccccc1								inactive	inactive	inactive	inactive	inactive	inactive	
O=C(/N=C1\CCCCCN1)Nc1c(Cl)cccc1Cl								inactive	inactive	inactive	inactive	inactive	inactive	
O=C(/N=C1\CCCN1Cc1ccccc1)Nc1cccc(C(F)(F)F)c1								inactive	inactive	inactive	inactive	inactive	inactive	
CN1CCCC/C1=N\C(=O)Nc1ccc(C(F)(F)F)cc1								inactive	inactive	inactive	inactive	inactive	inactive	
CN1CCCC/C1=N\C(=O)Nc1ccccc1								inactive	inactive	inactive	inactive	inactive	inactive	
CCCCN1CCC/C1=N\C(=O)Nc1cccc(Cl)c1								inactive	inactive	inactive	inactive	inactive	inactive	
